Measurements reported in patent US20180098969A1, “HODGKIN LYMPHOMA THERAPY” (Purdue Pharmaceutical Products L.P., priority 2016, published 2018).

Columns and labels:
L428 cells = test: Xenograft in NSG mice, HE staining and immunohistochemistry; type: in vivo; settings: for Injection site: Tumour cell necrosis/apoptosis: Marked / Injection site: Tumour cell necrosis/apoptosis: Mild / Injection site: Tumour cell necrosis/apoptosis: Minimal / Injection site: Tumour cell necrosis/apoptosis: Moderate / Injection site: Tumour cell necrosis/apoptosis: No / Injection site: Tumour cell necrosis/apoptosis: Overall / Injection site: Tumour cell necrosis/apoptosis: Severe / Injection site: Tumour infiltration: Marked / Injection site: Tumour infiltration: Mild / Injection site: Tumour infiltration: Minimal / Injection site: Tumour infiltration: Moderate / Injection site: Tumour infiltration: No / Injection site: Tumour infiltration: Overall / Injection site: Tumour infiltration: Severe / Liver: Tumour infiltration: Marked / Liver: Tumour infiltration: Mild / Liver: Tumour infiltration: Minimal / Liver: Tumour infiltration: Moderate / Liver: Tumour infiltration: No / Liver: Tumour infiltration: Overall / Liver: Tumour infiltration: Severe / Tumour presence: Animals with tumour infiltration in liver and in the injection area / Tumour presence: Overall / Liver: Tumour cell necrosis/apoptosis: Marked / Liver: Tumour cell necrosis/apoptosis: Mild / Liver: Tumour cell necrosis/apoptosis: Minimal / Liver: Tumour cell necrosis/apoptosis: Moderate / Liver: Tumour cell necrosis/apoptosis: No / Liver: Tumour cell necrosis/apoptosis: Overall / Liver: Tumour cell necrosis/apoptosis: Severe: % of mice
Text: Immunodeficient NOD-SCID-gammac−/− (NSG) mice aged 5 to 6 weeks were purchased from Charles River (NOD.Cg-Prkdcscid Il2rgtm1Wjl/SzJ). The mice arrived two weeks before the beginning of the experiments and were housed in micro-isolator cages during the entire course of the study. Immediately prior to the injection of Hodgkin lymphoma cells, mice were exposed to 3 Gy gamma irradiation using an IBL637 ^137Cs irradiator at a dose rate of 0.61 Gy/min. From 10^3 to 10^6 cells, either from the original cell lines or following amplification, were injected intravenously via the retro-orbital sinus. The mice were sacrificed by cervical dislocation and different organs were analysed and tumoural infiltration examined using multiple techniques.
Two independent experiments were performed to investigate the dose-effect of EDO-S101 in NSG mice eight weeks after xenografting with L428 cells as in Example 8. The aim of the protocol shown in FIG. […]
The mice were sacrificed by cervical dislocation. The sampled organs consisted of the eyes (site of injection), liver, spleen and bone marrow. Following dissection of different organs, including tumours, the first portion was used for flow cytometry (FACS) and cytogenetic analyses while the second was fixed in 4% paraformaldehyde (PFA) for immunohistochemistry (IHC). To obtain a single cell suspension, the tissues were first cut into pieces. Thereafter, the cells were physically disaggregated using an 80 μm nylon cell strainer and filtered a second time through a 70 μm nylon cell strainer (BD Biosciences, Erembodegem, Belgium).
Organs were fixed in 4% PFA, trimmed and post-fixed in 70° ethanol. They were then briefly processed using a vacuum inclusion processor and paraffin blocks were prepared. Five micrometer-thick sections were cut from these blocks and the resulting sections were stained with hemotoxylin-eosine (H&E) for histopathological analysis. In addition, IHC was carried out on of the totality of liver and spleen specimens for confirmation of the spread of engrafted cells. The search for single cells or small groups of grafted Hodgkin lymphoma cells was performed using an anti-CD30 antibody (DAKO, France; 1:40, EDTA pH9 pre-treatment) and the Ventana Discovery XT IHC system. Apoptosis and tumour necrosis were analysed.
Microscopic findings were assigned a severity score based upon the following scale: “0”=within physiological limits, “1”=minimal, “2”=mild, “3”=moderate, “4”=marked, “5”=severe. This severity score was attributed according to the size and number of observed lesions.

[1] = test system: Hodgkin lymphoma cell lines L1236-R100, L1236/DMSO and L1236; test: Viable cell count and IC50, all three lines; type: cell-based, human
Procedure: (b) The bendamustine-resistant Hodgkin lymphoma cell line L1236-R100, non-resistant L1236 Hodgkin lymphoma cell line cultured in DMSO L1236/DMSO and L1236 was cultured in the presence of EDO-S101 dissolved in DMSO at concentrations of 0.78 μM, 1.56 μM, 3.12 μM, 6.25 μM and 12.5 μM. Control cells were cultured in the same final concentration of DMSO. The number of viable cells was assessed at 24, 48 and 72 hours through a Countess™ automated cell counter (Invitrogen), each experiment being repeated three times and the results given being the mean of the three results ±SD.

[2] = two doses of 60 mg/kg three weeks apart

## Cn1c(CCCCCCC(=O)NO)nc2cc(N(CCCl)CCCl)ccc21 [EDO-S101]
L428 cells; 80 mg/kg
  tumour masses in liver and infiltration into other organs: No tumour masses were observed in the liver, nor was infiltration observed into the other organs
  Injection site: Tumour cell necrosis/apoptosis: Marked: 0.0%
  Injection site: Tumour cell necrosis/apoptosis: Mild: 0.0%
  Injection site: Tumour cell necrosis/apoptosis: Minimal: 0.0%
  Injection site: Tumour cell necrosis/apoptosis: Moderate: 0.0%
  Injection site: Tumour cell necrosis/apoptosis: No: 0.0%
  Injection site: Tumour cell necrosis/apoptosis: Overall: 100.0%
  Injection site: Tumour cell necrosis/apoptosis: Severe: 0.0%
  Injection site: Tumour infiltration: Marked: 0.0%
  Injection site: Tumour infiltration: Mild: 0.0%
  Injection site: Tumour infiltration: Minimal: 0.0%
  Injection site: Tumour infiltration: Moderate: 0.0%
  Injection site: Tumour infiltration: No: 0.0%
  Injection site: Tumour infiltration: Overall: 33.3%
  Injection site: Tumour infiltration: Severe: 33.3%
  Liver: Tumour infiltration: Marked: 0.0%
  Liver: Tumour infiltration: Mild: 0.0%
  Liver: Tumour infiltration: Minimal: 0.0%
  Liver: Tumour infiltration: Moderate: 0.0%
  Liver: Tumour infiltration: No: 100.0%
  Liver: Tumour infiltration: Overall: 0.0%
  Liver: Tumour infiltration: Severe: 0.0%
  Tumour presence: Animals with tumour infiltration in liver and in the injection area: 0.0%
  Tumour presence: Overall: 33.3%
L428 cells; 80 mg/kg or 60 mg/kg
  tumour cell necrosis: No cell necerosis was observed
L428 cells; 1 * 60 mg/kg
  Injection site: Tumour cell necrosis/apoptosis: Marked: 0.0%
  Injection site: Tumour cell necrosis/apoptosis: Mild: 0.0%
  Injection site: Tumour cell necrosis/apoptosis: Minimal: 50.0%
  Injection site: Tumour cell necrosis/apoptosis: Moderate: 0.0%
  Injection site: Tumour cell necrosis/apoptosis: No: 50.0%
  Injection site: Tumour cell necrosis/apoptosis: Overall: 100.0%
  Injection site: Tumour cell necrosis/apoptosis: Severe: 0.0%
  Injection site: Tumour infiltration: Marked: 50.0%
  Injection site: Tumour infiltration: Mild: 0.0%
  Injection site: Tumour infiltration: Minimal: 0.0%
  Injection site: Tumour infiltration: Moderate: 25.0%
  Injection site: Tumour infiltration: No: 0.0%
  Injection site: Tumour infiltration: Overall: 100.0%
  Injection site: Tumour infiltration: Severe: 25.0%
  Liver: Tumour cell necrosis/apoptosis: Marked: 0.0%
  Liver: Tumour cell necrosis/apoptosis: Mild: 0.0%
  Liver: Tumour cell necrosis/apoptosis: Minimal: 0.0%
  Liver: Tumour cell necrosis/apoptosis: Moderate: 0.0%
  Liver: Tumour cell necrosis/apoptosis: No: 100.0%
  Liver: Tumour cell necrosis/apoptosis: Overall: 0.0%
  Liver: Tumour cell necrosis/apoptosis: Severe: 0.0%
  Liver: Tumour infiltration: Marked: 0.0%
  Liver: Tumour infiltration: Mild: 25.0%
  Liver: Tumour infiltration: Minimal: 25.0%
  Liver: Tumour infiltration: Moderate: 25.0%
  Liver: Tumour infiltration: No: 25.0%
  Liver: Tumour infiltration: Overall: 75.0%
  Liver: Tumour infiltration: Severe: 0.0%
  Tumour presence: Animals with tumour infiltration in liver and in the injection area: 75.0%
  Tumour presence: Overall: 100.0%
L428 cells; 2 * 60 mg/kg
  Injection site: Tumour cell necrosis/apoptosis: Marked: 33.3%
  Injection site: Tumour cell necrosis/apoptosis: Mild: 66.7%
  Injection site: Tumour cell necrosis/apoptosis: Minimal: 0.0%
  Injection site: Tumour cell necrosis/apoptosis: Moderate: 0.0%
  Injection site: Tumour cell necrosis/apoptosis: No: 0.0%
  Injection site: Tumour cell necrosis/apoptosis: Overall: 100.0%
  Injection site: Tumour cell necrosis/apoptosis: Severe: 0.0%
  Injection site: Tumour infiltration: Marked: 11.1%
  Injection site: Tumour infiltration: Mild: 0.0%
  Injection site: Tumour infiltration: Minimal: 0.0%
  Injection site: Tumour infiltration: Moderate: 0.0%
  Injection site: Tumour infiltration: No: 0.0%
  Injection site: Tumour infiltration: Overall: 11.1%
  Injection site: Tumour infiltration: Severe: 0.0%
  Liver: Tumour cell necrosis/apoptosis: Marked: 0.0%
  Liver: Tumour cell necrosis/apoptosis: Mild: 0.0%
  Liver: Tumour cell necrosis/apoptosis: Minimal: 0.0%
  Liver: Tumour cell necrosis/apoptosis: Moderate: 0.0%
  Liver: Tumour cell necrosis/apoptosis: No: 100.0%
  Liver: Tumour cell necrosis/apoptosis: Overall: 0.0%
  Liver: Tumour cell necrosis/apoptosis: Severe: 0.0%
  Liver: Tumour infiltration: Marked: 0.0%
  Liver: Tumour infiltration: Mild: 11.1%
  Liver: Tumour infiltration: Minimal: 33.3%
  Liver: Tumour infiltration: Moderate: 0.0%
  Liver: Tumour infiltration: No: 55.6%
  Liver: Tumour infiltration: Overall: 44.4%
  Liver: Tumour infiltration: Severe: 0.0%
  Tumour presence: Animals with tumour infiltration in liver and in the injection area: 0.0%
  Tumour presence: Overall: 55.6%
L428 cells; single 60 or 80 mg/kg or two injections of 60 mg/kg
  severity of tumoural cell infiltration: significant decrease in the severity of tumoural cell infiltration
L428 cells; single dose of 60 mg/kg
  tumour regression: significant tumour regression
L428 cells; single dose of 60 mg/kg, 60 mg/kg
  mice with tumour lesions: only one mouse had moderate tumour lesions
L428 cells; two administrations of 60 mg/kg, versus control and single 60 mg/kg
  tumour regression: Significant tumour regression
L428 cells; [2]
  infiltration in the liver: Only one mouse exhibited a moderate level of infiltration in the liver
  tumours in organs (liver, spleen, bone marrow): No tumours were observed in any organs
[1]
  anti-proliferative activity compared with bendamustine: approximately two orders of magnitude greater than for bendamustine
